Results published in patent US5037578A, “O,O'-bridged oligophenylene laser dyes and dyestuff lasers and method of lasing therewith” (Exciton Chemical Company, priority 1990, dated 1991).
Converted amounts (≈) assume the structure as drawn. “And” between values parts separate entries of the source, which are not always exact repeats. Equal entries are not always repeated. Blank lines part the entries; values can stand above or below the compound they belong to.

Key:
[1] = Solubilities of o,o'-bridged oligophenylenes in laser solvents at 21° C.; assay type: physicochemical; settings: for Solubility: 21° C.; for Solubility compared with 2,2'-bifluorene: in solvents (Table I)
Description: It is further discovered that when substituent X of the bridged biphenyl moiety is a carbon atom which is free of benzylic hydrogens, the laser dye is relatively less reactive and relatively more soluble. In other words, it has been realized that the absence of benzylic hydrogens from the bridged carbon substituent, that is, the carbon substituent that is bonded directly to the phenyl moieties to form the bridge, renders the organic laser dyes of the present invention less reactive and more soluble. In view of the present disadvantages concerning the solubility of organic laser dyes available hitherto, this is quite significant.

[2] = Fluorescence emission spectrum and Fluorescence Quantum Efficiency; assay type: physicochemical; settings: for Fluorescence emission intensity, first peak / Fluorescence emission intensity, second peak / Fluorescence emission peak, first / Fluorescence emission peak, second: slits 2 nm
Description: The fluorescence emission spectrum for the dye 9,9-dipropylfluorene as illustrated in FIG. 1 was detected on a Perkin-Elmer MPF-44A, the slits were set at 2 nm and the excitation light was at 265 nm. The Fluorescence Quantum Efficiency (FQE) was about the same as that of fluorene - 55%; and the fluorescence emission peaks at 306 nm(intensity 86) and […](intensity 67) were also similar to those of fluorene [the fluorescence emission spectrum for fluorene as illustrated in FIG. 5 was also detected on a Perkin-Elmer MPF-44A, the slits were set at 2 nm and the excitation light was at 265 nm and the fluorescence emission peaks for fluorene are at 303 nm(intensity 93) and 311 nm(intensity 73)].
This dye had two fluorescence peaks of almost equal intensity at 360 nm(intensity 33) and 378 nm(intensity 28) as illustrated in FIG. 2. […] The fluorescence emission spectrum of the dye 9,9,9',9'-tetrapropyl-2,2'-bifluorene was detected on a Perkin-Elmer MPF-44A, the slits were set at 2 nm and the excitation light was at 331 nm.
This dye had fluorescence peaks at 324 nm(intensity 90) and 338 nm(intensity 76) and a reported fluorescence quantum yield of 100% in cyclohexane as illustrated in FIG. 3. […] The fluorescence emission spectrum for the dye 3-phenyldibenzofuran as illustrated in FIG. 3 was detected on a Perkin-Elmer MPF-44A, the slits were set at 2 nm and the excitation light was at 301 nm.
The dye, 3,3'-bi(dibenzofuran), was prepared in accordance with the process disclosed in H.O. Wirth, G. Waese and W. Kern: Synthese Und Eigenschaften Von: Oxydo-p-oligophenylenen. Makromol. Chem. 86: 139(1965) which is incorporated herein in its entirety by reference, and was purified by extraction from Brockmann Activity I alumina with chloroform in an Ace-Kauffman column to give a white solid, mp 249.5°-250.5° C. (lit.mp 252.5° C.). This dye had two fluorescence peaks of almost equal intensity at 353 nm(intensity 47) and 369 nm(intensity 30) in cyclohexane as illustrated in FIG. 4.

[3] = cyclohexane; reported; cited from earlier work

Solubility ([1]; 1,2-dichloroethane): 1.0 × 10^-3 M and 0.33 g/l
Solubility ([1]; 95% ethanol): 0.4 g/L (≈ 1210 µM)
Solubility ([1]; 100% ethanol): 2.3 × 10^-5 M and 0.0077 g/l
Solubility ([1]; Toluene): 1.3 × 10^-3 M and 0.4 g/l
Solubility ([1]; cyclohexane): 3.0 × 10^-5 M and 0.01 g/l
Compound: c1ccc2c(c1)Cc1cc(-c3ccc4c(c3)Cc3ccccc3-4)ccc1-2 [2,2'-bifluorene]

Fluorescence Quantum Efficiency (FQE) [2]: ~55%
Fluorescence emission intensity, first peak ([2]; excitation 265 nm): 86
Fluorescence emission intensity, second peak ([2]; excitation 265 nm): 67
Fluorescence emission peak, first ([2]; excitation 265 nm): 306 nm
Compound: CCCC1(CCC)c2ccccc2-c2ccccc21 [9,9-dipropylfluorene]

Fluorescence Quantum Efficiency (FQE) [2]: 55%
Fluorescence emission intensity, first peak ([2]; excitation 265 nm): 93
Fluorescence emission intensity, second peak ([2]; excitation 265 nm): 73
Fluorescence emission peak, first ([2]; excitation 265 nm): 303 nm
Fluorescence emission peak, second ([2]; excitation 265 nm): 311 nm
Compound: c1ccc2c(c1)Cc1ccccc1-2 [fluorene, reference compound]

Solubility ([1]; Toluene): ~1.3 × 10^-3 M and ~0.4 g/l
Compound: c1ccc(-c2ccc(-c3ccc(-c4ccccc4)cc3)cc2)cc1 [quaterphenyl, reference compound]

Second part, the compound before the results:

Compound: c1ccc2c(c1)oc1cc(-c3ccc4c(c3)oc3ccccc34)ccc12 [3,3'-bi(dibenzofuran)]
Fluorescence emission spectrum compared with dye of Example 2 [2]: almost superimposable on that of the dye discussed in Example 2
Fluorescence emission intensity, first peak ([2]; excitation 323 nm, cyclohexane): 47
Fluorescence emission intensity, second peak ([2]; excitation 323 nm, cyclohexane): 30
Fluorescence emission peak, first ([2]; excitation 323 nm, cyclohexane): 353 nm
Fluorescence emission peak, second ([2]; excitation 323 nm, cyclohexane): 369 nm
Solubility ([1]; 95% ethanol): 1.0 × 10^-2 M and 2.5 g/l
Solubility ([1]; 100% ethanol): 6.3 × 10^-5 M and 0.021 g/l
Solubility ([1]; DMF): 2.5 × 10^-3 M and 0.84 g/l
Solubility ([1]; Methanol): 2.1 × 10^-5 M and 0.007 g/l
Solubility ([1]; Toluene): 2.4 × 10^-3 M and 0.8 g/l
Solubility ([1]; cyclohexane): 9.0 × 10^-5 M and 0.030 g/l
Solubility ([1]; dioxane): 1.3 × 10^-3 M and 0.43 g/l
Solubility compared with 2,2'-bifluorene [1]: greater than that of 2,2'-bifluorene

Compound: c1ccc(-c2ccc3c(c2)oc2ccccc23)cc1 [3-phenyldibenzofuran]
Fluorescence quantum yield [3]: 100%
Fluorescence emission intensity, first peak ([2]; excitation 301 nm, cyclohexane): 90
Fluorescence emission intensity, second peak ([2]; excitation 301 nm, cyclohexane): 76
Fluorescence emission peak, first ([2]; excitation 301 nm, cyclohexane): 324 nm
Fluorescence emission peak, second ([2]; excitation 301 nm, cyclohexane): 338 nm
FQE in methanol compared with cyclohexane ([2]; methanol): the same in methanol as in cyclohexane
Solubility ([1]; 50% ethanol): 8.4 × 10^-3 M and 2.0 g/l
Solubility ([1]; 95% ethanol): 1.1 × 10^-2 M and 2.7 g/l
Solubility ([1]; 100% ethanol): 1.6 × 10^-2 M and 3.9 g/l
Solubility ([1]; Methanol): 1.2 × 10^-2 M and 2.9 g/l
Solubility ([1]; cyclohexane): > 2.44 g/l and > 1.0 × 10^-2 M
Solubility compared with p-terphenyl ([1]; in all cases (See Table I)): much greater than that of p-terphenyl
Solubility compared with p-terphenyl ([1]; methanol, 50% ethanol, 95% ethanol and absolute ethanol): much more soluble

Compound: CCn1c2ccccc2c2ccc(-c3ccc4c5ccccc5n(CC)c4c3)cc21 [9,9'-diethyl-2,2'-bicarbazole]
Violet fluorescence compared with compounds of Examples 2 and 4 ([2]; in alcohols): brighter violet fluorescence in alcohols than the compounds of Examples 2 and 4

Compound: CCCC1(CCC)c2ccccc2-c2ccc(-c3ccc4c(c3)C(CCC)(CCC)c3ccccc3-4)cc21 [9,9,9',9'-tetrapropyl-2,2'-bifluorene]
Fluorescence emission intensity, first peak ([2]; excitation 331 nm): 33
Fluorescence emission intensity, second peak ([2]; excitation 331 nm): 28
Fluorescence emission peak, first ([2]; excitation 331 nm): 360 nm
Fluorescence emission peak, second ([2]; excitation 331 nm): 378 nm
Solubility ([1]; 100% ethanol): 7.8 × 10^-4 M and 0.39 g/l
Solubility ([1]; Methanol): 3.4 × 10^-4 M and 0.17 g/l
Solubility ([1]; cyclohexane): 2.0 × 10^-2 M and 10 g/l
Solubility ([1]; dioxane): 6.5 × 10^-3 M and 3.2 g/l
Solubility compared with 2,2'-bifluorene [1]: more soluble than 2,2'-bifluorene
